In ChEMBL document CHEMBL1153882, “Prediction of convulsant activity of gases and vapors” (2009):

Species on record: Rattus norvegicus
Experiment: Convulsant activity in Sprague-Dawley rat assessed as partial pressure in atmosphere at which convulsion takes place
Format: functional

Structure (SMILES): FC(F)(F)c1cc(C(F)(F)F)cc(C(F)(F)F)c1
- log(1/CON): 1.85

Structure (SMILES): FC(F)(Cl)C(F)(F)Cl [DICHLOROTETRAFLUOROETHANE]
- log(1/CON): 0.41

Structure (SMILES): FC(F)(Cl)OC(F)(Cl)C(F)(F)F (centres undefined)
- log(1/CON): 0.71

Structure (SMILES): C1CCCCCCC1 [CYCLOOCTANE]
- log(1/CON): 2.82

Structure (SMILES): COC(F)(F)C(F)(F)C(F)(F)C(F)(F)F
- log(1/CON): 0.67

Structure (SMILES): COC(F)(F)C(F)(C(F)(F)F)C(F)(F)F
- log(1/CON): 0.67

Structure (SMILES): C1CCCCCC1 [CYCLOHEPTANE]
- log(1/CON): 2.34

Structure (SMILES): FC(F)(F)C(F)(F)Cl [CHLOROPENTAFLUOROETHANE]
- log(1/CON): -0.32

Structure (SMILES): FC(C(F)C(F)(F)C(F)(F)C(F)(F)F)C(F)(F)F (centres undefined)
- log(1/CON): 2.31

Structure (SMILES): CCCCCCCCC [NONANE]
- log(1/CON): 2.8

Structure (SMILES): FC(F)(Cl)C(F)(Cl)C(F)(Cl)C(F)(F)Cl (centres undefined)
- log(1/CON): 2.52

Structure (SMILES): FC(F)(Cl)OC(F)(F)C(F)(F)Cl
- log(1/CON): 0.68

Structure (SMILES): FC(F)C(F)(F)C(F)(F)C(F)(F)C(F)(F)C(F)(F)Br
- log(1/CON): 1.68

Structure (SMILES): CCCCCCCC [OCTANE]
- log(1/CON): 2.18

Structure (SMILES): FC(F)OC(F)(Cl)C(F)(F)F (centres undefined)
- log(1/CON): 0.84

Structure (SMILES): FC(F)(Cl)OC(F)(F)C(F)(Cl)Cl
- log(1/CON): 1.52

Structure (SMILES): FC(Cl)(Cl)OC(F)(F)C(F)(F)Cl
- log(1/CON): 1.36

Structure (SMILES): FC1(F)C(F)(F)[C@@](F)(Cl)[C@]1(F)Cl (relative stereo)
- log(1/CON): 1.19

Structure (SMILES): FC1(F)C(F)(F)[C@@](F)(Cl)[C@@]1(F)Cl
- log(1/CON): 1.41

Structure (SMILES): FC(F)(F)C(F)(F)C(F)(F)F [PERFLUTREN]
- log(1/CON): -0.88

Structure (SMILES): C1CCCCC1 [CYCLOHEXANE]
- log(1/CON): 1.66

Structure (SMILES): FC(F)(F)C(F)(F)C(F)(F)Br
- log(1/CON): 0.03

Structure (SMILES): Fc1ccc(F)cc1
- log(1/CON): 2.22

Structure (SMILES): FC(F)(Cl)C(F)(Cl)C(F)(F)Cl
- log(1/CON): 1.31

Structure (SMILES): FC(F)C(F)(F)C(F)(F)C(F)(F)F
- log(1/CON): 0.12

Structure (SMILES): FC(F)(F)C(F)(Br)C(F)(F)F
- log(1/CON): 0.13

Structure (SMILES): FC1(F)C(F)(F)C(F)(F)C1(F)F [PERFLUOROCYCLOBUTANE]
- log(1/CON): 0.01

Structure (SMILES): FC(F)(F)C(F)(Cl)C(F)(Cl)C(F)(F)F (centres undefined)
- log(1/CON): 1.04

Structure (SMILES): FC(F)(F)COC(F)(F)Cl
- log(1/CON): 1.63

Structure (SMILES): FC(F)(Cl)C(F)(Cl)Cl
- log(1/CON): 1.36

Structure (SMILES): FC(F)OC(F)(C(F)F)C(F)(F)F (centres undefined)
- log(1/CON): 1.25

Structure (SMILES): Fc1c(F)c(F)c(C(F)(F)F)c(F)c1F [PERFLUOROTOLUENE]
- log(1/CON): 3.46

Structure (SMILES): FC(F)(F)COCC(F)(F)F [FLUROTHYL]
- log(1/CON): 2.81

Structure (SMILES): FC(F)(F)C(F)(F)Br [BROMOPENTAFLUOROETHANE]
- log(1/CON): 0.02

Structure (SMILES): FC(F)(F)C(F)(Cl)C(F)(F)F
- log(1/CON): -0.26

Structure (SMILES): CCCCC [PENTANE]
- log(1/CON): 1.16

Structure (SMILES): FC(F)(F)COC(F)(F)F
- log(1/CON): 0.66

Structure (SMILES): FC(F)(Br)C(F)(F)C(F)(F)C(F)(F)Br
- log(1/CON): 1.86

Structure (SMILES): FC1(F)C(F)(F)C(F)(Cl)C1(F)Cl (racemic)
- log(1/CON): 1.26

Structure (SMILES): FC(F)(Br)Br [DIBROMODIFLUOROMETHANE]
- log(1/CON): 1.59

Structure (SMILES): FC(F)(Cl)OC(Cl)(Cl)C(F)(F)F
- log(1/CON): 1.61

Structure (SMILES): FC(F)(F)C(F)(F)C(F)(F)C(F)(F)Br
- log(1/CON): 0.59

Structure (SMILES): FCOC(F)(F)C(C(F)(F)F)C(F)(F)F
- log(1/CON): 1.43

Structure (SMILES): CC(F)(F)C(F)(F)F
- log(1/CON): 0.02
